The source of these data is ChEMBL document CHEMBL3991601, “The target landscape of clinical kinase drugs” (Science, 2017).

The source made the active and inactive calls. Where only a bound is given, the exact number is not on record here.

In assay [1] the target is Epidermal growth factor receptor (Homo sapiens, UniProt P00533).
In the next assay the target is Ephrin type-A receptor 7 (Homo sapiens, UniProt Q15375).
Assay [2] deals with Membrane-associated progesterone receptor component 1 (Homo sapiens, UniProt O00264).
Sequence of Membrane-associated progesterone receptor component 1 (O00264 whole entry): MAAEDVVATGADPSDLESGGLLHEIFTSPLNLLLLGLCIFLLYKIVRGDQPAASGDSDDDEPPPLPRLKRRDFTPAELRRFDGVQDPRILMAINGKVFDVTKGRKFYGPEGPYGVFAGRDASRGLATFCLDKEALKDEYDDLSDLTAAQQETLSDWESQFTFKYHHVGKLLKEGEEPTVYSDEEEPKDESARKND
The next assay addresses Misshapen-like kinase 1 (Homo sapiens, UniProt Q8N4C8).
For assay [3], the target named is T1, Phosphatidylinositol 5-phosphate 4-kinase type-2 alpha (Homo sapiens, UniProt P48426).
T1 sequence (P48426 whole entry): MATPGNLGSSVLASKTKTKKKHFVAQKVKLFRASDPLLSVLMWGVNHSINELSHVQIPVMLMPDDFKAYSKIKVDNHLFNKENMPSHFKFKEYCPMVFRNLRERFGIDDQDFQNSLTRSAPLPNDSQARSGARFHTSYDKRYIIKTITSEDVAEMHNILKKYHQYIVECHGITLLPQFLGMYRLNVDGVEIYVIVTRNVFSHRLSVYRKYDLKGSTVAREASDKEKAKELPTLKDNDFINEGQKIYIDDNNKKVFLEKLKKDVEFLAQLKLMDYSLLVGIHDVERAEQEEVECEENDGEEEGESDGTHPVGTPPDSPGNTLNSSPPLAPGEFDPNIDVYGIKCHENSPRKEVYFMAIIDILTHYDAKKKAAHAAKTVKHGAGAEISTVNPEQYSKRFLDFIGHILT

Assay [4] deals with Serine/threonine-protein kinase 38-like (Homo sapiens, UniProt Q9Y2H1).
Sequence of Serine/threonine-protein kinase 38-like (Q9Y2H1 whole entry): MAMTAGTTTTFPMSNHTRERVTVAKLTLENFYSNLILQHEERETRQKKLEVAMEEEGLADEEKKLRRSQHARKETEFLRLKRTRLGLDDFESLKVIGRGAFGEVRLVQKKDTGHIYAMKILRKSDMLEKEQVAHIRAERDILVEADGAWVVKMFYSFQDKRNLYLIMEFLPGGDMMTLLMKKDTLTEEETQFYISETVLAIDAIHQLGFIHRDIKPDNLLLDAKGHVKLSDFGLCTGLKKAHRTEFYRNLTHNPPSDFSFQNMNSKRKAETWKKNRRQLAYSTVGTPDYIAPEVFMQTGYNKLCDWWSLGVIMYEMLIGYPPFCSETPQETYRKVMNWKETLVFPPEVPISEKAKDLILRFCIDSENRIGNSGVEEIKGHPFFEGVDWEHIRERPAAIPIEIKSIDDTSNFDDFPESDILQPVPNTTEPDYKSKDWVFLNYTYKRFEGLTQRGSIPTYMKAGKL
Assay [5] deals with T2, Eukaryotic translation initiation factor 5B (Homo sapiens, UniProt O60841).
T2 sequence (O60841 whole entry): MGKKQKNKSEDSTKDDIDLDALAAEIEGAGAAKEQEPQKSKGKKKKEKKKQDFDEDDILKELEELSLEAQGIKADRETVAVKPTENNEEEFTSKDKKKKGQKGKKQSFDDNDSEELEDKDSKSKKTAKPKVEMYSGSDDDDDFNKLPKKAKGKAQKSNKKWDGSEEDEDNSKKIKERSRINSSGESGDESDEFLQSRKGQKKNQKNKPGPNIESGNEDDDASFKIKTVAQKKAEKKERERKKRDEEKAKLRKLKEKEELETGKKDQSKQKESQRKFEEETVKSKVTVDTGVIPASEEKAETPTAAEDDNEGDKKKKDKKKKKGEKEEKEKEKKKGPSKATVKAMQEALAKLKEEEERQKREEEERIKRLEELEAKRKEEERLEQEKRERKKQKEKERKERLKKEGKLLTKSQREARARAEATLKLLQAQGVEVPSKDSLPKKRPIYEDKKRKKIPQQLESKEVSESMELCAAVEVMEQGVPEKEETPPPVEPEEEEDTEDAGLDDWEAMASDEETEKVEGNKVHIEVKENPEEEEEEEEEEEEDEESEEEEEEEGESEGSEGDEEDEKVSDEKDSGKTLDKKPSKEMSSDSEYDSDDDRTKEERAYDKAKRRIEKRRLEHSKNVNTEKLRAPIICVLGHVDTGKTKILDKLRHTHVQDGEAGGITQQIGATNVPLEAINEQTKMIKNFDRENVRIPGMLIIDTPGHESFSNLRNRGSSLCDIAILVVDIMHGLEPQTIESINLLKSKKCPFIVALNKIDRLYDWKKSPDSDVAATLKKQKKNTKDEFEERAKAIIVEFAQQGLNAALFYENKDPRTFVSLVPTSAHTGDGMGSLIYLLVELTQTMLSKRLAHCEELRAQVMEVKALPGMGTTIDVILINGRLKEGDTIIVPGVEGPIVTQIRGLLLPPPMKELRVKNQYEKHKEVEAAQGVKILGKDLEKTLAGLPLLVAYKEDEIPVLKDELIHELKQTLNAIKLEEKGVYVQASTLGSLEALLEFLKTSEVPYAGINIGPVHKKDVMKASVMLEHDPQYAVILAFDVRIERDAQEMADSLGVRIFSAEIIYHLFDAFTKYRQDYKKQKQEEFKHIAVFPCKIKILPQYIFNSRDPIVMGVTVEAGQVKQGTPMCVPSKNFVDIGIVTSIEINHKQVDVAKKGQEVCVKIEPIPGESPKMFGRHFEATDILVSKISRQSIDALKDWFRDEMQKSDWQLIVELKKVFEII

In assay [6] the target is T3, Dual specificity protein kinase TTK (Homo sapiens, UniProt P33981).
T3 sequence (P33981 whole entry): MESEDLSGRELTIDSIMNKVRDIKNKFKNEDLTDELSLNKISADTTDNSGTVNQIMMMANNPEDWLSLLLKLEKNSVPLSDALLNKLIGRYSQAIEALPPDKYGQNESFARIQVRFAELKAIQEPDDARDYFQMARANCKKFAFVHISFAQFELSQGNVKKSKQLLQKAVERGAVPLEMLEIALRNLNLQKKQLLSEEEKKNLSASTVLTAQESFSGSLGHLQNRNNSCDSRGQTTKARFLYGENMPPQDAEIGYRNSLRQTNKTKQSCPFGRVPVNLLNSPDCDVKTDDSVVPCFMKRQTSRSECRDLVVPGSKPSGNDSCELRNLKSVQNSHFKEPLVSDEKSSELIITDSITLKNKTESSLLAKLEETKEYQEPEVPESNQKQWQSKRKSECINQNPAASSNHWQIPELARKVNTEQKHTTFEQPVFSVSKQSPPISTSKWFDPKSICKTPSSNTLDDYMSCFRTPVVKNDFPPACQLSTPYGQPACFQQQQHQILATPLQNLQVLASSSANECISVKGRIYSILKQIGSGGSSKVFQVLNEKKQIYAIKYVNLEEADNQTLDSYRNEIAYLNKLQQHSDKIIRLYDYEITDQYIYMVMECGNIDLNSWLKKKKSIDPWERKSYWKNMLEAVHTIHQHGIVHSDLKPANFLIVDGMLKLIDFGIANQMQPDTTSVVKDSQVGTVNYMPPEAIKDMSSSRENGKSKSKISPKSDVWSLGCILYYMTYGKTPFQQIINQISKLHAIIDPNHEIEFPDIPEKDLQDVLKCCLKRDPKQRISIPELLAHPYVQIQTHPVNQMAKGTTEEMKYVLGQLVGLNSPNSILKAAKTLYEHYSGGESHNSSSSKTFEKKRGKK
Further: in the data inactive means no Kd found up to 30 µM.

Sequence of Epidermal growth factor receptor (P00533 whole entry): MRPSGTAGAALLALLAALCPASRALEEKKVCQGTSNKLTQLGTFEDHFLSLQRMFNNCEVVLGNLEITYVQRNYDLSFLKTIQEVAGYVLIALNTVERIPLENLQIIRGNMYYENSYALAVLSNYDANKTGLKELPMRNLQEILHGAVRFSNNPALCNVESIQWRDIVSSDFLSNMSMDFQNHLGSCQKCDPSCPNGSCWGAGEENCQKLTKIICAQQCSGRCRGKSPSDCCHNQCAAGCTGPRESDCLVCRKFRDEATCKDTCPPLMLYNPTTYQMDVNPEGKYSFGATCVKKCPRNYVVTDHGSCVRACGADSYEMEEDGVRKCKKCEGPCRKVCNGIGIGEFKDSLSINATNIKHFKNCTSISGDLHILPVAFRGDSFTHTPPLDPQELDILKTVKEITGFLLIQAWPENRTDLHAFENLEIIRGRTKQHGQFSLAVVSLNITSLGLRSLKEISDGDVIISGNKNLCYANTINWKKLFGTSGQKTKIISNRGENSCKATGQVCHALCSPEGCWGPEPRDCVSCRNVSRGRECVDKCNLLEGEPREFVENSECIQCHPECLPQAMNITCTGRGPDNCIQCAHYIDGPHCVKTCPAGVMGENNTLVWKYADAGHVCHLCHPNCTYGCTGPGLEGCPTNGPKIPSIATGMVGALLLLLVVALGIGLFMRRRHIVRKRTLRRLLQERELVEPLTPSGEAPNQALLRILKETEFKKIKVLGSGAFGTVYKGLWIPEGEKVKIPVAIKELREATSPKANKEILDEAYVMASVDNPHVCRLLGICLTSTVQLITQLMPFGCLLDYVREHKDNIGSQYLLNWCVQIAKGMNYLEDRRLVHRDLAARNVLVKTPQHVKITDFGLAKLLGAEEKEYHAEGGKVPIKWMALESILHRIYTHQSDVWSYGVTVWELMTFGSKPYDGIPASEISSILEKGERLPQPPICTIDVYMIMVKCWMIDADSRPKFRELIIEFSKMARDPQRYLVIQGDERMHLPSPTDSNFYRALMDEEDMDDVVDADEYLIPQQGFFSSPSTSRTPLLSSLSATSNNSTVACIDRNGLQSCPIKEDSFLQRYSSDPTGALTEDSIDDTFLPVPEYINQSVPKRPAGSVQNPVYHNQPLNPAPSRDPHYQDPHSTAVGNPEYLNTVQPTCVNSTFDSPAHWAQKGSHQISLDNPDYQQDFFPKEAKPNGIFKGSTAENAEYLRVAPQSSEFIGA
Sequence of Misshapen-like kinase 1 (Q8N4C8 whole entry): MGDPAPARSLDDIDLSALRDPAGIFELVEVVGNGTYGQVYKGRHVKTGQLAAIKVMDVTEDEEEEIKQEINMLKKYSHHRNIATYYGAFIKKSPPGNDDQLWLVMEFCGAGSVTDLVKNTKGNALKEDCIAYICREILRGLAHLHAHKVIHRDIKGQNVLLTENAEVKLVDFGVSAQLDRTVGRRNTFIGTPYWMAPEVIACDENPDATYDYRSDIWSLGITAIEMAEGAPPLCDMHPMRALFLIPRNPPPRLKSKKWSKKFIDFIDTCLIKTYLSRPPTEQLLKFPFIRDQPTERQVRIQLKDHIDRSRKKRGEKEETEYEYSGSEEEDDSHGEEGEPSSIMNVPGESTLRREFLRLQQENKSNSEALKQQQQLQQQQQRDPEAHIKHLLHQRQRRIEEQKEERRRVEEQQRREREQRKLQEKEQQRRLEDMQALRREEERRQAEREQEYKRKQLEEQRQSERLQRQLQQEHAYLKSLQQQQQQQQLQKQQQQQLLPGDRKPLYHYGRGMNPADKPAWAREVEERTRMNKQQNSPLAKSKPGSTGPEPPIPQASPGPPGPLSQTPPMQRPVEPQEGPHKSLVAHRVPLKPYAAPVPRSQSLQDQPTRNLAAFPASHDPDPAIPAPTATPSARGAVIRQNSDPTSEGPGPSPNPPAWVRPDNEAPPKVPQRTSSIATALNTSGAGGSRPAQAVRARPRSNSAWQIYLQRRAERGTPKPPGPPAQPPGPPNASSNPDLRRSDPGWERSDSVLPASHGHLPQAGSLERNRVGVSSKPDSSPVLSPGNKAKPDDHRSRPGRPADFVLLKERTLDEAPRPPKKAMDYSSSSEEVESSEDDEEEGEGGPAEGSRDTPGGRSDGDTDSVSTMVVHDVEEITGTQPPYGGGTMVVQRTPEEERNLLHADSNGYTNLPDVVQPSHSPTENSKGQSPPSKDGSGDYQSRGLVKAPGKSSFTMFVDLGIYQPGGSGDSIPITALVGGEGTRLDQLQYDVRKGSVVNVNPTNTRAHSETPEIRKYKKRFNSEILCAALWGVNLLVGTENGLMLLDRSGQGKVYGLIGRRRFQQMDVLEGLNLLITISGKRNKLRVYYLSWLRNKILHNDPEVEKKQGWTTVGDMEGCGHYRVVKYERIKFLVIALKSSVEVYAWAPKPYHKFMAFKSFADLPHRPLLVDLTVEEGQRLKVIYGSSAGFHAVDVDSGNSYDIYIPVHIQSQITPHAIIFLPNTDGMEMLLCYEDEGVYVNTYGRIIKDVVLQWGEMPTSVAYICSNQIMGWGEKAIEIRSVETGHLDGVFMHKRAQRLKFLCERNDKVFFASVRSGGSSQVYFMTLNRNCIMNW
Sequence of Ephrin type-A receptor 7 (Q15375 whole entry): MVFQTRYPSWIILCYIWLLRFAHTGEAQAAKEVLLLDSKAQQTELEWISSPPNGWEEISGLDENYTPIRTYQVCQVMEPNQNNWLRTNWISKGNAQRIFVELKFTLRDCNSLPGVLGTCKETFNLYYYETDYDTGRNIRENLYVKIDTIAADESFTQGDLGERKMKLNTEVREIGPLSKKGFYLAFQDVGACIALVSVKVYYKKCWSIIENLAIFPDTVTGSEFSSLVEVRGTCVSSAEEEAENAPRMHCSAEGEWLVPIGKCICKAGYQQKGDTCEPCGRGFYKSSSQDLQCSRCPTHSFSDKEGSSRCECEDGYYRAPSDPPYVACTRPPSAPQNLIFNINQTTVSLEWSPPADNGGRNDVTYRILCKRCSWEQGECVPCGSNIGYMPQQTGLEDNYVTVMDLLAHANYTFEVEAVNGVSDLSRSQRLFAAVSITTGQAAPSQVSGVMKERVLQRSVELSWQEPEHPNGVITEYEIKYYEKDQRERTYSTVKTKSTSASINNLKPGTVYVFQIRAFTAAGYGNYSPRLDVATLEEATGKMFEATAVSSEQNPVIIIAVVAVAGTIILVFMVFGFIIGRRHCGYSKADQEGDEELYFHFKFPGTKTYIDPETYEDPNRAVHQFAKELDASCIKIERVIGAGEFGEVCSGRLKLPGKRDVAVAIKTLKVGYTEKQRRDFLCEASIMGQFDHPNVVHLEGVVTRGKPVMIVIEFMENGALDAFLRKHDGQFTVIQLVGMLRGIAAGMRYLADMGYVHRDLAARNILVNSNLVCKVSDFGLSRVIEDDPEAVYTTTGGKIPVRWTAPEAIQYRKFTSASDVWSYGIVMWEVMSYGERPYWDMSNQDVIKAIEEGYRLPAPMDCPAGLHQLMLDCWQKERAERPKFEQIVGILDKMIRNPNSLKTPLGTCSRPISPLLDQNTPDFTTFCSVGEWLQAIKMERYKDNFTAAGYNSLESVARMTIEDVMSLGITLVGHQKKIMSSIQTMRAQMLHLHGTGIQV

With `CC[C@@H]1C(=O)N(C)c2cnc(Nc3ccc(C(=O)N[C@H]4CC[C@H](N5CCN(CC6CC6)CC5)CC4)cc3OC)nc2N1C(C)C` [VOLASERTIB], the Kd (in assay [1]; on Ephrin type-A receptor 7; in assay [2]; at Misshapen-like kinase 1; in assay [3]; in assay [4]) was > 30 µM (inactive) throughout. For the same compound, the Kd (usually the equilibrium constant for the complex coming apart) in assay [5] is > 30 µM (inactive).
`CO[C@H]1C[C@@H]2CC[C@@H](C)[C@@](O)(O2)C(=O)C(=O)N2CCCC[C@H]2C(=O)O[C@H]([C@H](C)C[C@@H]2CC[C@@H](OCCO)[C@H](OC)C2)CC(=O)[C@H](C)/C=C(\C)[C@@H](O)[C@@H](OC)C(=O)[C@H](C)C[C@H](C)/C=C/C=C/C=C/1C` [EVEROLIMUS]: the Kd (in assay [1]; in assay [6]; at Ephrin type-A receptor 7; in assay [3]; in assay [5]) was > 30 µM (inactive) in each case.
Take `CC(=O)Nc1cccc(-n2c(=O)n(C3CC3)c(=O)c3c(Nc4ccc(I)cc4F)n(C)c(=O)c(C)c32)c1` [TRAMETINIB]: the Kd (in assay [1]; in assay [6]; on Ephrin type-A receptor 7; in assay [2]; on Misshapen-like kinase 1; in assay [3]) was > 30 µM (inactive) throughout. In assay [5], the Kd was > 30 µM (inactive).
For `Cc1cc(Nc2cc(N3CCN(C)CC3)nc(/C=C/c3ccccc3)n2)n[nH]1` [ENMD-2076], the Kd in assay [6], in assay [2] and in assay [5] was > 30 µM (inactive) in each case.
As for `COC(=O)N[C@@H](C)CNc1nccc(-c2cn(C(C)C)nc2-c2cc(Cl)cc(NS(C)(=O)=O)c2F)n1` [ENCORAFENIB], the Kd in assay [1] was > 30 µM (inactive); in assay [6], > 30 µM (inactive); at Ephrin type-A receptor 7, > 30 µM (inactive); in assay [2], 0.204 µM; on Misshapen-like kinase 1, > 30 µM (inactive); in assay [3], > 30 µM (inactive). For the same compound, in assay [5], the Kd is > 30 µM (inactive).
Consider `CCS(=O)(=O)N1CC(CC#N)(n2cc(-c3ncnc4[nH]ccc34)cn2)C1` [BARICITINIB], for which the Kd (in assay [1]; at Ephrin type-A receptor 7; in assay [2]; at Misshapen-like kinase 1; in assay [4]; in assay [5]) was > 30 µM (inactive) each time.
For the compound `CNS(=O)(=O)Nc1nccc(Cc2c(C)c3ccc(Oc4ncccn4)cc3oc2=O)c1F` [AVUTOMETINIB], the Kd (in assay [1]; in assay [6]; at Ephrin type-A receptor 7; in assay [2]; in assay [3]; in assay [5]) was > 30 µM (inactive) each time.
As to `CCc1cnn2c(NCc3ccc[n+]([O-])c3)cc(N3CCCC[C@H]3CCO)nc12` [DINACICLIB], the Kd (in assay [1]; at Ephrin type-A receptor 7; in assay [2]; on Misshapen-like kinase 1; in assay [3]; in assay [4]) was > 30 µM (inactive) each time. Moreover, the Kd in assay [5] is > 30 µM (inactive).
Take `COc1cc(N2CCC(N3CCN(C)CC3)CC2)ccc1Nc1ncnc(Nc2ccccc2S(=O)(=O)C(C)C)n1` [ASP-3026]: the Kd was 20.8 µM (active) in assay [1]; > 30 µM (inactive) in assay [6]; > 30 µM (inactive) on Ephrin type-A receptor 7; > 30 µM (inactive) on Misshapen-like kinase 1; > 30 µM (inactive) in assay [5].
With `Cc1nc(N)sc1-c1ccnc(Nc2ccc(N3CCOCC3)cc2)n1` [CYC-116], the Kd was 0.016 µM in assay [6], > 30 µM (inactive) in assay [2], > 30 µM (inactive) in assay [3] and > 30 µM (inactive) in assay [5].
For the compound `CN1CCC(CNc2ccc3ncc(-c4cccc(OC(F)(F)F)c4)n3n2)CC1` [SGI-1776], the Kd (in assay [1]; in assay [6]; on Ephrin type-A receptor 7; on Misshapen-like kinase 1; in assay [3]) was > 30 µM (inactive) in each case.
With `CNC(=O)c1cc(Oc2ccc(NC(=O)Nc3ccc(Cl)c(C(F)(F)F)c3)c(F)c2)ccn1` [REGORAFENIB], the Kd was > 30 µM (inactive) in assay [1]; 3.92 µM in assay [6]; > 30 µM (inactive) in assay [2]; > 30 µM (inactive) in assay [3]; > 30 µM (inactive) in assay [5].
Consider `CN(C)C(=O)c1cc2cnc(Nc3ccc(N4CCNCC4)cn3)nc2n1C1CCCC1` [RIBOCICLIB], for which the Kd (in assay [1]; in assay [6]; at Ephrin type-A receptor 7; in assay [2]; in assay [3]; in assay [5]) was > 30 µM (inactive) throughout.
In the case of `CC[C@H](Nc1ncnc2[nH]cnc12)c1nc2cccc(F)c2c(=O)n1-c1ccccc1` [IDELALISIB], the Kd (in assay [1]; at Ephrin type-A receptor 7; in assay [2]; on Misshapen-like kinase 1; in assay [3]; in assay [4]) was > 30 µM (inactive) each time. Besides, the Kd in assay [5] is > 30 µM (inactive).
Turning to `CN1CC[C@@H](c2c(O)cc(O)c3c(=O)cc(-c4ccccc4Cl)oc23)[C@@H]1CO`, the Kd (in assay [1]; on Ephrin type-A receptor 7; at Misshapen-like kinase 1; in assay [4]; in assay [5]) was > 30 µM (inactive) throughout.
As for `O=C(c1ccc(F)c(F)c1Nc1ccc(I)cc1F)N1CC(O)([C@@H]2CCCCN2)C1` [COBIMETINIB], the Kd (in assay [1]; at Ephrin type-A receptor 7; in assay [2]; at Misshapen-like kinase 1; in assay [3]; in assay [4]) was > 30 µM (inactive) throughout. Further, the Kd in assay [5] was > 30 µM (inactive).
